Data set [1] deals with T1, CB1 receptor (Rattus norvegicus, UniProt P20272). Nature of the data set: THC inhibition of AMPAR-mediated EPSC, patch clamp in nucleus accumbens slices. Type of data set: cell-based, rats. On the set-up: from tissue; host or cells: acute coronal brain slices, nucleus accumbens. The settings on record: control slices. (In general: Patch clamp records ionic current or voltage across a cell membrane.)

The target of data set [2] is CB1 receptor (Mus musculus, UniProt P47746). In words: THC inhibition of fEPSP in nucleus accumbens slices. It is filed as cell-based, mice. More on the design: from tissue; host or cells: acute brain slices, nucleus accumbens. The note with it: control slices. As to the method: Animals were deeply anesthetized with Isoflourane and transcardially perfused with a sucrose-based physiological solution at 4° C. (in mM: 23 NaHCO3, 70 Choline Cl, 75 Sucrose, 25 Glucose, 2.5 KCl, 1.25 NaH2PO4, 7 MgCl2 and 0.5 CaCl2). The brain was removed and sliced (250-300 μm) in the coronal plane using a vibratome (Campden Instruments, Loughborough, UK). During the slicing process, the brain was maintained in the sucrose-based solution. Immediately after cutting, slices were stored at 32° C. for 40 minutes in a low-calcium artificial cerebrospinal fluid (low-Ca^2+ ACSF) that contained (in mM): 23 NaHCO3, 120 NaCl, 11 Glucose, 2.5 KCl, 1.2 NaH2PO4, 2.4 MgCl2, 1.2 CaCl2. Slices were then stored in low-Ca^2+ ACSF at room temperature until recording.
For fEPSPs, extracellular glass recording and stimulating electrodes were filled with ACSF. Synaptic potentials were evoked by means of two electric stimuli (0.1-0.25 mA, 200 μsec duration) delivered at 20 Hz every 10 seconds. Stimulating electrode was placed at a distance>150 μm in the dorsomedial direction from the recoding electrode.
In order to test the effect of pregnenolone on a wider range of THC concentrations, we recorded fEPSP in NAc slices. Due to the possibility to achieved stable fEPSP measurements for several hours, this technique is ideally suited to perform dose-response curves and has previously been used to address CB1 receptor function (Robbe et al., 2001; Mato et al., 2004). Thus, AMPAR-mediated evoked fEPSP were recorded by electrically stimulating local axons.

For data set [3], the target named is T1, CB1 receptor. In words: Pregnenolone concentrations in the brain after drugs of abuse and CB1 ligands (GC/MS). Type of data set: in vivo, Wistar rats. More on the design: tissue Charles River Laboratories (France) (animals); host or cells: living Wistar rats, whole animal. The protocol: Plasma, brain and culture medium levels of pregnenolone (5-Pregnen-3β-ol-20-one), allopregnanolone (3α-hydroxy-5α-pregnan-20-one), epiallopregnanolone (3β-hydroxy-5α-pregnan-ol-20-one), testosterone, and 5α dihydrotestosterone were determined by GC/MS according to the of estraction, purification and quantification protocol described previously (George O, et al., Biol Psychiatry. 2010 68: 956-63, Vallee M, et al., Anal Biochem. 2000, 287:153-66).
In this example the inventors analyzed the effects of the injection of the principal drugs of abuse on the production of pregnenolone in male Wistar rats. […] For example, in the brain, starting from pregnenolone two parallel enzymatic cascades allow producing on one hand allopregnanolone and its stereoisomer epiallopregnanolone and on the other testosterone and its metabolite DHT. These brain steroids were quantified using GC-MS, the only technique able to differentiate their subtle structural differences. […] Concentrations of neurosteroids were analyzed 15, 30 and 120 min after the injection in several ascending brain structure, the ventral midbrain the hypothalamus, the striatal complex and the frontal cortex.
The example provides data obtained in the plasma and in several brain structures: frontal cortex (FCX); nucleus accumbens (ACC); striatum (STR); hypothalamus (HYP).
The effects of THC in the brain are mediated by a family of G-protein-coupled seven membrane receptors (GCPR) and principally by the CB1 and CB2 receptors.

Data set [4] is described as follows: Elevated plus maze, anxiety-like behaviors. The note with it: sc, 30 min before test; pregnenolone 1, 6, 10 mg/kg; rimonabant 10 mg/kg. It is filed as in vivo, mice. The protocol: The elevated plus maze was made by a central platform (10×10 cm) from which departed 4 arms (45×10 cm) at a 90° angle from each other. Two opposite arms, named closed arms had peripheral wall 50 cm high. The two other arms, named open arms had no walls. The maze was suspended at 66 cm from the floor of the room and was brightly lighted (120 lux). The testing consisted in placing the animal in the central platform and the number of entry and the time spent in each compartment of the maze recorded for 5 min. The number of entry and time spent in the open arms are considered and index of anxiety-like behaviors, whilst the total number of entry are and index of locomotor activity.
One of the major side effects of orthosteric antagonists of the CB1 is the induction of behavioral side effect and in particular an axiodepressive state. […] This test has been chosen because an increase in anxiety was the principal undesirable side effect of this compound in humans.

2 molecules from US10150793B2, “Antagonists of CB1 receptor” (INSERM (Institut National de la Santé et de la Recherche …, priority 2011, dated 2018) can be followed below.

Each structure is given as a SMILES string.

T1 sequence (P20272 whole entry): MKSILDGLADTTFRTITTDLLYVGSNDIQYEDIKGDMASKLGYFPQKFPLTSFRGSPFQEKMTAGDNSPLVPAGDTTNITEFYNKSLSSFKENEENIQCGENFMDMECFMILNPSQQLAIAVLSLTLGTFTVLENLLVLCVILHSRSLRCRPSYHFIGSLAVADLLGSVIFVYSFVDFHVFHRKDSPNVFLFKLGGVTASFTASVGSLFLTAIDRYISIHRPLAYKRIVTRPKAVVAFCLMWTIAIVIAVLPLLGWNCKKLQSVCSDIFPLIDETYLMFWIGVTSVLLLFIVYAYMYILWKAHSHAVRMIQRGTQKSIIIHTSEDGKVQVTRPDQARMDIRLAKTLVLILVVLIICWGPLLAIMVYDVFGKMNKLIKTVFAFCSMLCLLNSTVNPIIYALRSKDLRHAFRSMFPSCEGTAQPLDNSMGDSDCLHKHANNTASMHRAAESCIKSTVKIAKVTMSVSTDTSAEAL
Sequence of CB1 receptor (Mus musculus, UniProt P47746) (P47746 whole entry, the tested form may be a part): as the sequence (P20272 whole entry) above, with E95D counted along it

As for `CCCCCc1cc(O)c2c(c1)OC(C)(C)[C@@H]1CCC(C)=C[C@@H]21` [THC, Δ9-tetrahydrocannbinol, reference compound], in data set [1], the “inhibition of EPSC amplitude by THC” value is reported as 34.3±3.7 % of inhibition. At 10 µM the inhibition in data set [2] (THC 10 μM) was 23.9 ± 6%. For the same molecule, in data set [2] (THC 20 μM), the inhibition – broadly, the drop in the measured response relative to a control, in per cent – at 20 µM came to 35.3 ± 4.7%. The molecule further returned an inhibition at 40 µM in data set [2] (THC 40 μM) of 48.6 ± 3.6%. In addition, the “increase in brain concentrations of pregnenolone” value in data set [3] (nucleus accumbens, between 15 and 30 min after the injection, THC 3 mg/kg) is “around 1500%”. Besides, the 50% effective dose (ED50) (as a rule, the dose that gives a 50% effect, or the effect in half of the subjects) in data set [3] (rat, 30 min after the injection, THC 0.3-9 mg/kg, read-out: ED50 of the increase in pregnenolone in the brain) is roughly 3 mg/kg.

Turning to `Cc1c(C(=O)NN2CCCCC2)nn(-c2ccc(Cl)cc2Cl)c1-c1ccc(Cl)cc1` [rimonabant, reference compound], the “anxiety-like behavior (entries and time spent in open arms)” value in data set [4] is reported as “anxiogenic effects”.
